Experimental data as given in ChEMBL document CHEMBL1148587, “Imidazo[1,2-a]pyrimidines as functionally selective and orally bioavailable GABA(A)alpha2/alpha3 binding site agonists for the treatment of anxiety disorders” (J Med Chem, 2006).

Assays:
[1] = biological target: T1, GABA-A receptor; alpha-3/beta-3/gamma-2 (Homo sapiens) (UniProt P18507+P28472+P34903); test: Efficacy against human recombinant GABAA alpha3 in combination with beta-3-gamma-2 expressed in L(tk-) cells by 36Cl ion flux modulation; assay type: functional, cell-based
[2] = biological target: T2, GABA-A receptor; alpha-1/beta-3/gamma-2 (Homo sapiens, UniProt P14867+P18507+P28472); test: Displacement of [3H]-Ro15-1788 from human recombinant GABAA alpha1 in combination with beta-3-gamma-2 expressed in L(tk-) cells; assay type: cell-based
T2 sequence (P14867 whole entry): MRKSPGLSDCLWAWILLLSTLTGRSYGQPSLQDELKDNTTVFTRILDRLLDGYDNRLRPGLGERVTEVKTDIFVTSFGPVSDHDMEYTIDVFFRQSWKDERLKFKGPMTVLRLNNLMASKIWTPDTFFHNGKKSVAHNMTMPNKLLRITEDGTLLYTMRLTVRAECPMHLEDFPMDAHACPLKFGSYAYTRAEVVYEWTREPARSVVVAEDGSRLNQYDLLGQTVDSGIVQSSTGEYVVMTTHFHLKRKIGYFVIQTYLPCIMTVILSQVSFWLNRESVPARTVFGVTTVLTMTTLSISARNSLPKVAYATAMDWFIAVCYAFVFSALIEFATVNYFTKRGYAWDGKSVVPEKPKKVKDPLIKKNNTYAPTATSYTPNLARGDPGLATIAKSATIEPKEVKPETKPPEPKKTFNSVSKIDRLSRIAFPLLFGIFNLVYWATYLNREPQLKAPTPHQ
T2 sequence (P18507 whole entry): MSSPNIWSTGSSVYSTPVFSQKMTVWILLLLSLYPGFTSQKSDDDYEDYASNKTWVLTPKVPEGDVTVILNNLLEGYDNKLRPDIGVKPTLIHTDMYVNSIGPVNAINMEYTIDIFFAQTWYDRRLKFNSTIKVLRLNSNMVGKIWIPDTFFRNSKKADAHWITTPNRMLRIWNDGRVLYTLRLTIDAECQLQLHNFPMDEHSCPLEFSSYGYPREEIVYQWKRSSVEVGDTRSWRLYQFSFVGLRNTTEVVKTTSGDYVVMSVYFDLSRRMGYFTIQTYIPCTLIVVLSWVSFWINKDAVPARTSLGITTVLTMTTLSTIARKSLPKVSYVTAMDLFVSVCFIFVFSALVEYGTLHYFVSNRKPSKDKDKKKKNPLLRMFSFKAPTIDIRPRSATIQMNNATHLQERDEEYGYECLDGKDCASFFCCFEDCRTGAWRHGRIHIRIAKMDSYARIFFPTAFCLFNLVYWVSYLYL
T2 sequence (P28472 whole entry): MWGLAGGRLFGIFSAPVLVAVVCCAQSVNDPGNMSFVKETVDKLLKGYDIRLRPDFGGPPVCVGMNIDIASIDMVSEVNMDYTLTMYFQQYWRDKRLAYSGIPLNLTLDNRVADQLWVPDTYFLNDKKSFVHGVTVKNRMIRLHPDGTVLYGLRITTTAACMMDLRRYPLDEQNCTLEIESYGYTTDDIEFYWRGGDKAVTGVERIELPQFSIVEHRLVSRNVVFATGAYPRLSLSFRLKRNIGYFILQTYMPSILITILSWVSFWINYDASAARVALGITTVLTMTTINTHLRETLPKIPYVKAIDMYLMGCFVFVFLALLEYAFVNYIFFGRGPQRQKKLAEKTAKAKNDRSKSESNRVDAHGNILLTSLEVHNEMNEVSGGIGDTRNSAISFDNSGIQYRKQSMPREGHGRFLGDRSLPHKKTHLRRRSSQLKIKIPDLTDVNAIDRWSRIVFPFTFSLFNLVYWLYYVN

[3] = biological target: T3, GABA-A receptor; alpha-3/beta-3/gamma-2 (Homo sapiens, UniProt P18507+P28472+P34903); test: Displacement of [3H]Ro-151788 from human recombinant GABAA alpha3 in combination with beta3gamma2 expressed in L(tk-) cells; assay type: cell-based
T3 sequence (P18507 whole entry): T2 sequence (P18507 whole entry)
T3 sequence (P28472 whole entry): T2 sequence (P28472 whole entry)
T3 sequence (P34903 whole entry): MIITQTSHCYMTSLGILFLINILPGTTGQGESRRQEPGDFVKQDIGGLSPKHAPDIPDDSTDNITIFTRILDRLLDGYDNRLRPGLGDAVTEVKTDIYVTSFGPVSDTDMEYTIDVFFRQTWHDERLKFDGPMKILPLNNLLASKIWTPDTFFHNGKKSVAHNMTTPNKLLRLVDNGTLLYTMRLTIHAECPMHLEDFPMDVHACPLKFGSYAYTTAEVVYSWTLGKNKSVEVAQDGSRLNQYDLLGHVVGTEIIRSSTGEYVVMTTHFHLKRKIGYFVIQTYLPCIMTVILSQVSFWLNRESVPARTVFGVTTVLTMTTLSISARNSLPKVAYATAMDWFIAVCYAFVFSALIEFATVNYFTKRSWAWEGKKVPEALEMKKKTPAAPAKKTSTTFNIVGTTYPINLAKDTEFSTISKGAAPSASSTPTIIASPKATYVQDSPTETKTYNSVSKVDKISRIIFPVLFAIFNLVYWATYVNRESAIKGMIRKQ

[4] = biological target: T4, GABA-A receptor; alpha-5/beta-3/gamma-2 (Homo sapiens, UniProt P18507+P28472+P31644); test: Displacement of [3H]Ro-151788 from human recombinant GABAA alpha5 in combination with beta3gamma2 expressed in L(tk-) cells; assay type: cell-based
T4 sequence (P18507 whole entry): T2 sequence (P18507 whole entry)
T4 sequence (P28472 whole entry): T2 sequence (P28472 whole entry)
T4 sequence (P31644 whole entry): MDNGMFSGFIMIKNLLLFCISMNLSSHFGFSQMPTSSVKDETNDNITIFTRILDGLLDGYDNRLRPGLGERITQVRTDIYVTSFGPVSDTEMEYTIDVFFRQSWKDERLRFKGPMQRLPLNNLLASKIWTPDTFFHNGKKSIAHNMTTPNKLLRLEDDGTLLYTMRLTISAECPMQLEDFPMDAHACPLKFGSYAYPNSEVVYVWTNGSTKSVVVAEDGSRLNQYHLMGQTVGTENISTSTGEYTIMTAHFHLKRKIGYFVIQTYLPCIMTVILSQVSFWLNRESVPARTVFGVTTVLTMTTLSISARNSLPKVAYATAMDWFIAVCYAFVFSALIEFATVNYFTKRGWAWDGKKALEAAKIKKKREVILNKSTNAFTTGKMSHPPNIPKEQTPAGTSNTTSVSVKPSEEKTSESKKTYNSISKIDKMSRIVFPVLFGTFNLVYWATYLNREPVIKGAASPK

[5] = biological target: T5, GABA-A receptor; alpha-1/beta-3/gamma-2 (Homo sapiens) (UniProt P14867+P18507+P28472); test: Efficacy against human recombinant GABAA alpha1 in combination with beta3gamma2 expressed in L(tk-) cells by 36Cl ion flux modulation; assay type: functional, cell-based
[6] = biological target: T5, GABA-A receptor; alpha-1/beta-3/gamma-2 (Homo sapiens); test: Efficacy against human recombinant GABAA alpha-1 in combination with beta3gamma2 expressed in L(tk-) cells by whole cell patch clamp method; assay type: functional, cell-based
[7] = biological target: T1, GABA-A receptor; alpha-3/beta-3/gamma-2 (Homo sapiens); test: Efficacy against human recombinant GABAA alpha3 in combination with beta-3-gamma-2 expressed in L(tk-) cells by whole cell patch clamp method; assay type: functional, cell-based
[8] = biological target: T6, GABA-A receptor; alpha-2/beta-3/gamma-2 (Homo sapiens, UniProt P18507+P28472+P47869); test: Displacement of [3H]-Ro15-1788 from human recombinant GABAA alpha2 in combination with beta3gamma2 expressed in L(tk-) cells; assay type: cell-based
T6 sequence (P18507 whole entry): T2 sequence (P18507 whole entry)
T6 sequence (P28472 whole entry): T2 sequence (P28472 whole entry)
T6 sequence (P47869 whole entry): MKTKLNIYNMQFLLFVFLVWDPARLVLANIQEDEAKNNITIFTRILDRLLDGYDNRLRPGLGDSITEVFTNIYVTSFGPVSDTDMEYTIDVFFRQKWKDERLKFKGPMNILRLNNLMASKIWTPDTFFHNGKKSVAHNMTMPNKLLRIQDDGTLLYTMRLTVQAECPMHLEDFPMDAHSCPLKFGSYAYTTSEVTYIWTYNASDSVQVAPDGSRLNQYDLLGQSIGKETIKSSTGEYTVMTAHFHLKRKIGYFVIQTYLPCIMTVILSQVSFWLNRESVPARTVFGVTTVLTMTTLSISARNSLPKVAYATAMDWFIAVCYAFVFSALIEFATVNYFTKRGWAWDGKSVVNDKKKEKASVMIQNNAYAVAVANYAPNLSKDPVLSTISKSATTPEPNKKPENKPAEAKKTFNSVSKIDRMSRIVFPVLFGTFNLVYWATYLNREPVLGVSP

[9] = biological target: GABA-A receptor; alpha-5/beta-3/gamma-2 (Homo sapiens) (UniProt P18507+P28472+P31644); test: Efficacy against human recombinant GABAA alpha5 in combination with beta3gamma2 expressed in L(tk-) cells by whole cell patch clamp method; assay type: functional, cell-based
[10] = Oral bioavailability in rat; assay type: ADME, organism-based; settings: in vivo
[11] = Plasma clearance in rat; assay type: ADME, organism-based
[12] = Oral bioavailability in dog; assay type: ADME, organism-based, Canis lupus familiaris; settings: in vivo
[13] = Plasma clearance in dog; assay type: ADME, organism-based, Canis lupus familiaris

N#Cc1c(F)cccc1-c1cc(-c2cnc3nc(C(F)(F)F)ccn23)ccc1F
Efficacy [1]: 56% | Ki [2]: 4.6 nM | Ki [3]: 7.6 nM | Ki [4]: 2.8 nM | Efficacy [5]: 31%

N#Cc1ccc(F)cc1-c1cc(-c2cnc3nc(C(F)(F)F)ccn23)ccc1F
Ki [2]: 0.65 nM | Ki [3]: 0.62 nM | Ki [4]: 0.26 nM | Efficacy [6]: 34%

Cc1ccn2c(-c3cccc(-c4cccnc4)c3)cnc2c1
Efficacy [1]: 9% | Ki [3]: 16 nM | Efficacy [5]: -15%

N#Cc1ccccc1-c1cccc(-c2cnc3nc(C(F)(F)F)ccn23)c1
Ki [2]: 0.66 nM | Ki [3]: 0.33 nM | Ki [4]: 0.21 nM | Efficacy [6]: 20% | Efficacy [7]: 69%

N#Cc1cccc(F)c1-c1cc(-c2cnc3nc(C(F)(F)F)ccn23)ccc1F
Ki [2]: 0.87 nM | Ki [3]: 0.38 nM | Ki [4]: 0.5 nM | Efficacy [6]: 8% | Efficacy [7]: 33%

Cn1cnc(COc2nn3c(-c4ccccc4)nnc3c3c2C2CCC3CC2)n1
Efficacy [6]: 34% | Efficacy [7]: 55%

CCn1ncnc1COc1nn2c(-c3ccccc3F)nnc2cc1C(C)(C)C [MK-0777]
Ki [2]: 0.26 nM | Ki [8]: 0.3 nM | Ki [3]: 0.3 nM | Ki [4]: 0.2 nM

N#Cc1ccccc1-c1cc(F)cc(-c2cnc3nc(C(F)(F)F)ccn23)c1
Efficacy [1]: 18% | Ki [2]: 5.3 nM | Ki [3]: 14 nM | Ki [4]: 1.6 nM | Efficacy [5]: 4%

CCO/N=C(\C)c1ccc2c(c1)ncn2-c1cccc(-c2cccnc2)c1
Ki [2]: 1.5 nM | Ki [8]: 13.1 nM | Ki [3]: 9.2 nM | Ki [4]: 1.6 nM | Efficacy [6]: 42% | Efficacy [7]: 127% | Efficacy [9]: 26%

Cc1ccn2c(-c3cccc(-c4ccccc4C#N)c3)cnc2c1
bioavailability [10]: 2% | clearance [11]: 44 mL/min/kg | Ki [2]: 4.5 nM | Ki [3]: 3.6 nM | Ki [4]: 1.2 nM | Efficacy [6]: -10% | Efficacy [7]: 57% | Efficacy [9]: -14.6%

N#Cc1ccccc1-c1cccc(-c2cnc3nc(C(F)(F)F)ccn23)c1F
Ki [2]: 2.7 nM | Ki [3]: 2.6 nM | Ki [4]: 0.94 nM | Efficacy [6]: 2% | Efficacy [7]: 43% | Efficacy [9]: 18%

N#Cc1ccccc1-c1cc(-c2cnc3nc(C(F)(F)F)ccn23)ccc1F
Ki [2]: 0.5 nM | Ki [8]: 0.52 nM | Ki [3]: 0.34 nM | Ki [4]: 0.2 nM | Efficacy [6]: 12.4% | Efficacy [7]: 43% | Efficacy [9]: 14%

Cn1ncnc1COc1nn2c(-c3cc(F)ccc3F)nnc2cc1C(C)(C)C
Ki [2]: 0.8 nM | Ki [8]: 0.7 nM | Ki [3]: 0.7 nM | Ki [4]: 2.3 nM | Efficacy [6]: 2% | Efficacy [7]: 43% | Efficacy [9]: 39%

Cc1ccn2c(-c3cccc(-c4ccccc4C#N)c3)cnc2n1
bioavailability [10]: 42% | clearance [11]: 13 mL/min/kg | bioavailability [12]: < 5% | clearance [13]: 41 mL/min/kg | Ki [2]: 0.39 nM | Ki [8]: 0.78 nM | Ki [3]: 0.37 nM | Ki [4]: 0.12 nM | Efficacy [6]: 7% | Efficacy [7]: 81% | Efficacy [9]: 1%

CC(C)(O)c1ccn2c(-c3ccc(F)c(-c4ccc(F)cc4C#N)c3)cnc2n1
Efficacy [1]: 45% | Ki [2]: 2.7 nM | Ki [8]: 3.3 nM | Ki [3]: 1.3 nM | Ki [4]: 0.1 nM | Efficacy [5]: 45%

c1ccc(-c2nnc3c4c(c(OCc5ccccn5)nn23)C2CCC4CC2)cc1
Ki [2]: 56 nM | Ki [8]: 21.7 nM | Ki [3]: 10 nM | Ki [4]: 1 nM | Efficacy [6]: 32% | Efficacy [7]: 45.6%
